Measured values from article PMC10818308, “Phytochemicals from Pterocarpus angolensis DC and Their Cytotoxic Activities against Breast Cancer Cells” (Plants, 2024).
In brackets after ≈: the same amount, converted by molar mass.

Legend:
[1] = test system: non-tumorigenic breast epithelial cell line (MCF-12A); test: Resazurin cytotoxicity assay, MCF-12A; format: cell-based; settings: Homo sapiens, MCF-12A cells, 96 h treatment, read-out: IC50 (µM) MCF12A
Method: (§1) The cytotoxicity of the pure compounds was evaluated using the in vitro cell culture against triple-negative breast cancer (HCC70) cell lines, hormone receptor-positive breast cancer (MCF-7), and non-tumorigenic epithelial cell lines derived from breast tissue (MCF-12A). A compound’s ability to inhibit a particular biochemical function is determined by its half-maximum inhibitory concentration (IC50). Etoposide was used as the positive control.
(§2) The cell viability after treatment with the isolated pure compounds of P. angolensis was analyzed using the resazurin assay in commercially available established cell lines purchased from the American Type Culture Collection. Triple-negative breast cancer cell line (HCC70) (estrogen receptor (ER)^−, progesterone receptor (PR), (HER-2)^−, (ATCC-CRL-2315)), hormone receptor-positive (ER^+, PR ^+, HER-2) breast cancer cell line (MCF-7) (ATCC: HTB-22), and non-tumorigenic breast epithelial cell line (MCF-12A) (ATCC: CRL-10782, a kind gift from Anna-Mart Engelbrecht, Stellenbosch University, Stellenbosch, South Africa) were maintained in culture in a 9% CO2 incubator at 37 °C. The HCC70 cell line was cultured in RPMI-1640 media (Gibco, Trenton, MI, USA) supplemented with 10% (v/v) fetal bovine serum (FBS) (BioWest, Nuaillé, France), 1% (v/v) 100 U/mL penicillin, streptomycin, and amphotericin (PSA) (Lonza, Basel, Switzerland), 1% (v/v) GlutaMAX^TM (Gibco) and 0.25% (v/v) sodium bicarbonate (Gibco). The MCF-7 cell line cell was cultured in Dulbecco’s Modified Eagles Medium (DMEM) (Gibco) supplemented with 10% (v/v) FBS, 1% (v/v) PSA and 1% (v/v) GlutaMAX^TM. The MCF-12A cell line was cultured in DMEM/Ham’s F-12 (BioWest) supplemented with 10% (v/v) FBS, 1% (v/v) PSA, 20 ng/mL human epidermal growth factor (Sigma, St. Louis, MO, USA), 100 ng/mL cholera toxin (Sigma), 500 ng/mL hydrocortisone (Abcam, Cambridge, UK) and 10 μg/mL insulin (Novo Nordisk, Bagsværd, Denmark). All cells were seeded into 96-well plates at a density of 5000 cells per well and allowed to adhere for the night in a 9% CO2 incubator at 37 °C. The cells were subsequently treated for 96 h at 37 °C in an incubator with 9 percent CO2 with the isolated compounds with […] at concentrations ranging from 15.63 to 500.00 μM or with 0.2% (v/v) DMSO (Sigma) as a vehicle control. Thereafter, 0.54 nM of resazurin (Glentham Life Sciences, Corsham, UK) solution was added, and cells were then cultured for two to four hours at 37 °C in an incubator with 9% CO2. A Spectramax spectrophotometer (Molecular Devices, Sunnyvale, CA, USA) was used to measure the fluorescence of the resulting solutions. The excitation and emission wavelengths were set at […], respectively. The experiment was repeated in technical triplicate, and the data were analyzed using GraphPad Prism (Boston, MA, USA). […] The selectivity index (SI) value of each compound was calculated as the ratio of IC50 of MCF-12A/IC50 of HCC70 or MFC-7 of the same compound, where an SI > 1 implies toxicity that is preferentially toxic to cancer cells compared to non-cancerous cells.

CYP3A4 = test system: CYP3A4; set-up: method as in PMID 30122094; settings: read-out: inhibition of CYP3A4; cited from earlier work
[2] = test system: triple-negative breast cancer (HCC70) cell line; test: Resazurin cytotoxicity assay, HCC70; format: cell-based; settings: for IC50 (µM) HCC70 / IC50: HCC70 cells, 96 h treatment, resazurin; for SI (Selectivity Index), IC50 of MCF-12A/IC50 of HCC70: HCC70 versus MCF-12A; for IC50: Homo sapiens
Method: as §1, §2

[3] = test system: 2E1 human liver microsomal; set-up: method as in PMID 30122094; settings: read-out: inhibition of 2E1; cited from earlier work
[4] = test system: hormone receptor-positive breast cancer cell line (MCF-7); test: Resazurin cytotoxicity assay, MCF-7; format: cell-based; settings: for IC50: Homo sapiens, MCF7; for SI (Selectivity Index), IC50 of MCF-12A/IC50 of MCF-7: MCF-7 versus MCF-12A
MCF-7 = test system: MCF-7; set-up: method as in PMID 28619518; settings: 48 h; read-out: activity against MCF-7; cited from earlier work
[5] = test system: HeLa cervical cancer cells; set-up: method as in doi:10.15408/jkv.v1i1.20068; settings: read-out: IC50 cytotoxicity; cited from earlier work
[6] = test system: oral epithelial carcinoma cells (KB/C152); set-up: method as in PMID 32334461; settings: cited from earlier work
Lactuca sativa seeds = test system: Lactuca sativa seeds; set-up: method as in PMID 19127726; settings: cited from earlier work
insect-derived sf9 = test system: insect-derived sf9; set-up: method as in PMID 19127726; settings: cited from earlier work
Staphylococcus typhi = test system: Staphylococcus typhi; set-up: method as in PMID 19583913; settings: cited from earlier work
Kocuria kristinae = test system: Kocuria kristinae; set-up: method as in PMID 19583913; settings: cited from earlier work
CCRF-CEM cells = test system: CCRF-CEM cells; set-up: method as in earlier work; settings: read-out: IC50 cytotoxicity; cited from earlier work
[7] = test system: glioblastoma U87MG.EGFR cells, CEM/ADR5000 leukemia cells; set-up: method as in earlier work; settings: read-out: IC50 cytotoxicity; cited from earlier work
[8] = test system: human ovarian cancer cell line, SKOV3; set-up: method as in PMID 32095097; settings: SKOV3 cells; read-out: IC50 cytotoxicity; cited from earlier work
[9] = test system: human endometrial carcinoma cell line HEC-1A; set-up: method as in PMID 32095097; settings: HEC-1A cells; read-out: IC50 cytotoxicity; cited from earlier work
[10] = test system: Acinetobacter calcaoceuticus; set-up: method as in PMID 19583913; settings: cited from earlier work
Staphylococcus aureus = test system: Staphylococcus aureus; set-up: method as in PMID 19583913; settings: cited from earlier work
[11] = MCF-7 cells, 96 h treatment, resazurin

## C[C@H]1C(=O)CC[C@@H]2[C@]1(C)CC[C@H]1[C@@]2(C)CC[C@@]2(C)[C@@H]3CC(C)(C)CC[C@]3(C)CC[C@]12C [Compound 1, friedelan-3-one]
[1]
  IC50: 43.9 µM
CYP3A4
  IC50: 10.8 µM
[2]
  IC50 (µM) HCC70: Non-Toxic
[3]
  IC50: 22.5 µM
[4]; [11]
  IC50 (µM) MCF7: Non-Toxic
MCF-7
  IC50: 1.2 µM

## CC[C@H](/C=C/[C@@H](C)[C@H]1CC[C@H]2[C@@H]3CC=C4C[C@@H](O)CC[C@]4(C)[C@H]3CC[C@]12C)C(C)C [Compound 5, Stigmasta-5-22-dien-3-ol]
[5]
  IC50: 26.4 µM
[6]
  IC50 cytotoxicity: 81.18 µg/mL (≈ 197 µM)
[1]
  IC50: 44.1 µM
[2]
  SI (Selectivity Index), IC50 of MCF-12A/IC50 of HCC70: 0.40
  IC50: 109 µM
[4]; [11]
  IC50: 227 µM
[4]
  SI (Selectivity Index), IC50 of MCF-12A/IC50 of MCF-7: 0.19

## CCCCCCCCCCCCCCOC(=O)/C=C/c1ccc(O)c(OC)c1 [Compound 8, tetradecyl (E)-ferulate]
[1]
  IC50: 6.95 µM
other
  melting point: 68 to 70 °C
[2]
  SI (Selectivity Index), IC50 of MCF-12A/IC50 of HCC70: 0.05
  IC50: 128 µM
[4]; [11]
  IC50: 223 µM
[4]
  SI (Selectivity Index), IC50 of MCF-12A/IC50 of MCF-7: 0.03

## C[C@H]1C(O)C(=O)CC2[C@]3(C)CC[C@@]4(C)C5CC(C)(C)CC[C@]5(C)CC[C@]4(C)C3CC[C@@]21C (stereo partly drawn) [Compound 2, 3α-hydroxyfriedel-2-one]
Lactuca sativa seeds
  phytotoxicity against germination: no phytotoxicity
[1]
  IC50: 84.2 µM
insect-derived sf9
  cytotoxicity effect on sf9: 8.32 µg/mL
[2]
  IC50 (µM) HCC70: Non-Toxic
[4]; [11]
  IC50: 157 µM
[4]
  SI (Selectivity Index), IC50 of MCF-12A/IC50 of MCF-7: 0.53

## CC1=C(O)C(=O)CC2[C@]3(C)CC[C@@]4(C)C5CC(C)(C)CC[C@]5(C)CC[C@]4(C)C3CC[C@]12C (some centres unmarked) [Compound 3, 3-hydroxyfriedel-3-en-2-one]
[1]
  IC50: 136 µM
other
  melting point: 265 to 268 °C
[2]
  SI (Selectivity Index), IC50 of MCF-12A/IC50 of HCC70: 0.93
  IC50: 146 µM
[4]; [11]
  IC50: 101 µM
[4]
  SI (Selectivity Index), IC50 of MCF-12A/IC50 of MCF-7: 1.35

## hexamer of epicatechin
Staphylococcus typhi
  minimum inhibition concentration (MIC): 25 µg/mL
Kocuria kristinae
  minimum inhibition concentration (MIC): 25 µg/mL

## C=C(C)[C@@H]1CC[C@]2(C)CC[C@]3(C)[C@H](CC[C@@H]4[C@@]5(C)CC[C@H](O)C(C)(C)[C@@H]5CC[C@]43C)[C@@H]12 [Compound 4, lup-20(29)-en-3-ol]
CCRF-CEM cells
  IC50: 0.02 to 66.8 µM
[1]
  IC50: 36.6 µM
[2]
  IC50 (µM) HCC70: Non-Toxic
[4]; [11]
  IC50: 149 µM
[4]
  SI (Selectivity Index), IC50 of MCF-12A/IC50 of MCF-7: 0.25
[7]
  IC50: 13.6 to 69.4 µM

## CC(=O)OC1CCC2(C)C(CCC3(C)C2CC=C2C4CC(C)(C)CCC4(C(=O)O)CCC23C)C1(C)C (stereo not drawn) [Compound 7, (3β)-3-acetoxyolean-12-en-28-oic acid]
[8]
  IC50: 8.3 µM
[1]
  IC50: 143 µM
[9]
  IC50: 0.8 µM
[2]
  SI (Selectivity Index), IC50 of MCF-12A/IC50 of HCC70: 0.97
  IC50: 147 µM
[4]; [11]
  IC50: 83.1 µM
[4]
  SI (Selectivity Index), IC50 of MCF-12A/IC50 of MCF-7: 1.72

## epicatechin-3-O-gallate
[10]
  minimum inhibition concentration (MIC): 50 µg/mL
Staphylococcus aureus
  minimum inhibition concentration (MIC): 50 µg/mL

## COc1ccc(C(C)C(=O)c2ccc(OC)cc2O)cc1 (centres unmarked) [Compound 6, 4-O-methylangolensis]
[1]
  IC50: 148 µM
other
  melting point: 70 to 71 °C
[2]
  SI (Selectivity Index), IC50 of MCF-12A/IC50 of HCC70: 1.32
  IC50: 111 µM
[4]; [11]
  IC50: 77.5 µM
[4]
  SI (Selectivity Index), IC50 of MCF-12A/IC50 of MCF-7: 1.91

## COc1cc([C@@H]2c3cc4c(cc3[C@@H](O[C@@H]3O[C@@H]5CO[C@@H](C)O[C@H]5[C@H](O)[C@H]3O)[C@H]3COC(=O)[C@H]23)OCO4)cc(OC)c1O [Etoposide, reference compound]
[1]
  IC50: 10.9 µM
[2]
  IC50: 44.8 µM
